Source: patent US11926619B2, “Certain pladienolide compounds and methods of use” (EISAI R&D MANAGEMENT CO., LTD., priority 2018, dated 2024)
Where two headings read alike, the source gives them in different places.

Legend:
Format in all cases: cell-based
[1] = tested on: Panc 05.04 cells (pancreatic cancer cells; Q699H and K700E mutations in SF3B1); test: Cell viability assay (CellTiter-Glo, 72 hr), Panc 05.04 cells; details: Panc 05.04 cells (mutant SF3B1); for Emax: maximum achievable response in tested dose range, negative value = cellular lethality, read-out: Panc 05.04 (mt SF3B1 cells) Emax (%); for GI50: read-out: Panc 05.04 (mt SF3B1 cells), GI50
Protocol: (§1) Cells (WiDr and Panc05.04 obtained from ATCC) were seeded in 96-well plates, with 2000 cells/100 μL/well, and incubated overnight. Spent media was removed, and fresh media containing 9 different concentrations of compound (100 μL/well) were added, with DMSO concentration from compound stock solution adjusted to be 0.1%. Each compound treatment was done in duplicate or triplicate at each concentration.
(§2) Another plate with cells seeded was dedicated as a time zero (Tz) plate, to which was added 0.1% DMSO in media (100 μL/well) followed by CellTiter-Glo® reagent (Promega Corporation, Madison, Wisconsin) (50 μL/well) for ATP measurement as a surrogate of cell viability. Average value from measurement of multiple wells of this plate is used as Tz. Compound-treated plates were incubated for 72 hr at 37° C. Then, CellTiter-Glo® reagent (50 μL/well) was added and ATP was measured. Average value from measurement of the duplicate or triplicate compound-treated wells is used as Ti, and seeded plates with medium having 0.1% DMSO without compound is used as control growth (C).
(§3) Percentage growth inhibition/Percentage viability was calculated as:
(§4) [(Ti−Tz)/(C−Tz)]×100 for concentrations for which Ti>/=Tz
(§5) [(Ti−Tz)/Tz]×100 for concentrations for which Ti<Tz.
(§6) *time zero (Tz), control growth (C), and test growth in the presence of compound (Ti) Percentage growth inhibition/Percentage viability are plotted versus compound concentration to determine Emax.
(§7) Emax refers to the maximum achievable response to a compound in a tested dose range, with a negative value indicating cellular lethality. A larger negative Emax value indicates greater cellular lethality for a particular compound.

[2] = tested on: WiDr-R cells (colon cancer cells; chemically-induced SF3B1 R1074H mutant); test: Cell viability assay (CellTiter-Glo, 72 hr), resistant WiDr-R cells (counter-screen)
Protocol: as §1, §2, §3, §4, §5, §6, §7
The counter-screening of compounds in this viability assay with a “resistant” WiDr-R cell line may indicate whether these compounds have off-target effect(s).

[3] = tested on: WiDr cells (colon cancer cells; wildtype SF3B1); test: Cell viability assay (CellTiter-Glo, 72 hr), WiDr cells; details: Homo sapiens
Protocol: as §1, §2, §3, §4, §5, §6
Emax refers to the maximum achievable response to a compound in a tested dose range, with a negative value indicating cellular lethality. A larger negative Emax value indicates greater cellular lethality for a particular compound. […]

[4] = WiDr-R cells (SF3B1 R1074H mutation, resistant), read-out: WiDr-R GI50
[5] = WiDr cells (wildtype SF3B1), read-out: WiDr GI50

SMILES: COC(=O)OC[C@H](C)/C=C/C=C(\C)[C@H]1OC(=O)C[C@H](O)CC[C@@](C)(O)[C@@H](OC(=O)N2CCN(C)CC2)/C=C/[C@@H]1C
- Emax [1]: -95.9%
- GI50 [1]: 5.11 nM
- GI50 [2, 4]: > 1000 nM
- GI50 [3, 5]: 14.7 nM

SMILES: C/C(=C\C=C\[C@@H](C)COC(=O)N1CCC[C@H]1CF)[C@H]1OC(=O)C[C@H](O)CC[C@H](C)[C@@H](OC(=O)N2CCN(C3CCCCCC3)CC2)/C=C/[C@@H]1C
- Emax [1]: -77.7%
- GI50 [1]: 6.76 nM
- GI50 [2, 4]: > 1000 nM
- GI50 [3, 5]: 5.05 nM

SMILES: C/C(=C\C=C\[C@@H](C)COC(=O)N1CC[C@@H](C)C1)[C@H]1OC(=O)C[C@H](O)CC[C@@](C)(O)[C@@H](OC(=O)N2CCN(C3CCCCCC3)CC2)/C=C/[C@@H]1C
- Emax [1]: -86.6%
- GI50 [1]: 1.2 nM
- GI50 [2, 4]: > 1000 nM
- GI50 [3, 5]: 3.93 nM

SMILES: CC(=O)O[C@H]1/C=C/[C@H](C)[C@@H](/C(C)=C/C=C/C(C)c2cccc(OCC(C)C)n2)OC(=O)C[C@H](O)CC[C@@]1(C)O (stereo partly drawn)
- Emax [1]: -27.1%
- GI50 [1]: 842 nM
- GI50 [2, 4]: > 10000 nM
- GI50 [3, 5]: 440 nM

SMILES: CC(=O)O[C@H]1/C=C/[C@H](C)[C@@H](/C(C)=C/C=C/Cc2ccncc2)OC(=O)C[C@H](O)CC[C@@]1(C)O
- Emax [1]: 76.5%
- GI50 [1]: > 6400 nM
- GI50 [2, 4]: > 10000 nM
- GI50 [3, 5]: 610 nM

SMILES: CCCN(C)C(=O)OC[C@H](C)/C=C/C=C(\C)[C@H]1OC(=O)C[C@H](O)CC[C@@](C)(O)[C@@H](OC(=O)N2CCN(C3CCCCCC3)CC2)/C=C/[C@@H]1C
- Emax [1]: -92.4%
- GI50 [1]: 279 nM
- GI50 ([2]; read-out: WiDr-R GI50 (nM)): > 1000 nM
- GI50 ([3]; WiDr, read-out: WiDr GI50 (nM)): 43.4 nM

SMILES: CC(=O)O[C@H]1/C=C/[C@H](C)[C@@H](/C(C)=C/C=C/[C@@H](C)COC(=O)N2CCSC2)OC(=O)C[C@H](O)CC[C@@]1(C)O
- GI50 [1]: 68 nM
- GI50 [2, 4]: > 1000 nM
- GI50 [3, 5]: 62.9 nM

SMILES: CC(=O)O[C@H]1/C=C/[C@H](C)[C@@H](/C(C)=C/C=C/C(C)c2cccc([C@H](C)CO)n2)OC(=O)C[C@H](O)CC[C@@]1(C)O (stereo partly drawn)
- Emax [1]: -28.2%
- GI50 [1]: 408 nM
- GI50 [2, 4]: > 10000 nM
- GI50 [3, 5]: 343 nM

SMILES: C/C(=C\C=C\[C@@H](C)c1ccccn1)[C@H]1OC(=O)CCCC[C@@](C)(O)[C@@H](OC(=O)N2CCN(C)CC2)/C=C/[C@@H]1C
- Emax [1]: -75.7%
- GI50 [1]: 33.9 nM
- GI50 [2, 4]: > 1000 nM
- GI50 [3, 5]: 31.6 nM

SMILES: C/C(=C\C=C\[C@@H](C)COC(=O)N1CC[C@@H](NC(=O)OC(C)(C)C)C1)[C@H]1OC(=O)C[C@H](O)CC[C@@](C)(O)[C@@H](OC(=O)N2CCN(C3CCCCCC3)CC2)/C=C/[C@@H]1C
- Emax [1]: -59.6%
- GI50 [1]: 59.4 nM
- GI50 [2, 4]: > 1000 nM
- GI50 [3, 5]: 28 nM

SMILES: C/C(=C\C=C\[C@@H](C)COC(=O)N1CCC[C@H]1C)[C@H]1OC(=O)C[C@H](O)CC[C@@](C)(O)[C@@H](OC(=O)N2CCN(C3CCCCCC3)CC2)/C=C/[C@@H]1C
- GI50 [1]: 2.52 nM
- GI50 [2, 4]: 21.8 nM
- GI50 [3, 5]: 1.42 nM

SMILES: C/C(=C\C=C\[C@@H](C)COC(=O)N1CCC[C@H]1C)[C@H]1OC(=O)CCCCC[C@@H](OC(=O)N2CCN(C)CC2)/C=C/[C@@H]1C
- Emax [1]: -65.3%
- GI50 [1]: 7.73 nM
- GI50 [2, 4]: 681 nM
- GI50 [3, 5]: 3.44 nM

SMILES: CCC(C)N(C)C(=O)OC[C@H](C)/C=C/C=C(\C)[C@H]1OC(=O)C[C@H](O)CC[C@@](C)(O)[C@@H](OC(C)=O)/C=C/[C@@H]1C (stereo partly drawn)
- GI50 [1]: 587 nM
- GI50 [2, 4]: > 10000 nM
- GI50 [3, 5]: 308 nM

SMILES: CC(=O)O[C@H]1/C=C/[C@H](C)[C@@H](/C(C)=C/C=C/[C@@H](C)COC(=O)N2CCOCC2)OC(=O)C[C@H](O)CC[C@@]1(C)O
- GI50 [1]: 15.4 nM
- GI50 [2, 4]: > 10000 nM
- GI50 [3, 5]: 91.3 nM

SMILES: COc1cccc(C(C)/C=C/C=C(\C)[C@H]2OC(=O)C[C@H](O)CC[C@@](C)(O)[C@@H](OC(C)=O)/C=C/[C@@H]2C)n1 (stereo partly drawn)
- Emax [1]: -12.7%
- GI50 [1]: 554 nM
- GI50 [2, 4]: > 10000 nM
- GI50 [3, 5]: 282 nM

SMILES: C/C(=C\C=C\[C@@H](C)COC(=O)N1CCCC1)[C@H]1OC(=O)CCCCC[C@@H](OC(=O)N2CCN(C3CCCCCC3)CC2)/C=C/[C@@H]1C
- Emax [1]: -93.3%
- GI50 [1]: 170 nM
- GI50 [2, 4]: 929 nM
- GI50 [3, 5]: 74.6 nM
